Target: SARS-CoV-2 main protease (M^pro or 3CL^pro) (Severe acute respiratory syndrome coronavirus 2, UniProt P0DTD1)
Experiment: Fluorogenic substrate assay of SARS-CoV-2 main protease
Type: biochemical
Settings: compound 9 relative to compound 8

## O=c1cc(-c2ccc(O)cc2)oc2cc(O[C@@H]3O[C@H](CO)[C@@H](O)[C@H](O)[C@H]3O)cc(O)c12 [Compound 9, apigenin-7-O-β-D-glucopyranoside]
  improvement in protease inhibitory activity: 15 fold

— article PMC12282105 (RSC Advances, 2025)
